ChEMBL document CHEMBL5727788, “Amido-benzyl sulfone and sulfoxide derivates” (2020)

molecular target: Nicotinamide phosphoribosyltransferase (Homo sapiens, UniProt P43490); test: Enzymatic Reaction Assay: The NAMPT enzymatic reactions were carried out in Buffer A (50 mM Hepes pH 7.5, 50 mM NaCl, 5 mM MgCl2, and 1 mM THP) in 96-well V-bottom plates. The compound titrations were performed in a separate dilution plate by serially diluting the compounds in DMSO to make a 100× stock. Buffer A (89 μL) containing 33 nM of NAMPT protein was added to 1 μL of 100× compound plate containing controls (e.g. DMSO or blank). The compound and enzyme mixture was incubated for 15 min at rt, then 10 μL of 10× substrate and co-factors in Buffer A were added to the test well to make a final concentration of 1 μM NAM, 100 μM 5-Phospho-D-ribose 1-diphosphate (PRPP), and 2.5 mM Adenosine 5′-triphosphate (ATP). The reaction was allowed to proceed for 30 min at rt, then was quenched with the addition of 11 μL of a solution of formic acid and L-Cystathionine to make a final concentration of 1% formic acid and 10 μM L-Cystathionine. Background and signal strength was determined by addition (or non-addition) of a serial dilution of NMN to a pre-quenched enzyme and cofactor mix.
Sequence (P43490 whole entry): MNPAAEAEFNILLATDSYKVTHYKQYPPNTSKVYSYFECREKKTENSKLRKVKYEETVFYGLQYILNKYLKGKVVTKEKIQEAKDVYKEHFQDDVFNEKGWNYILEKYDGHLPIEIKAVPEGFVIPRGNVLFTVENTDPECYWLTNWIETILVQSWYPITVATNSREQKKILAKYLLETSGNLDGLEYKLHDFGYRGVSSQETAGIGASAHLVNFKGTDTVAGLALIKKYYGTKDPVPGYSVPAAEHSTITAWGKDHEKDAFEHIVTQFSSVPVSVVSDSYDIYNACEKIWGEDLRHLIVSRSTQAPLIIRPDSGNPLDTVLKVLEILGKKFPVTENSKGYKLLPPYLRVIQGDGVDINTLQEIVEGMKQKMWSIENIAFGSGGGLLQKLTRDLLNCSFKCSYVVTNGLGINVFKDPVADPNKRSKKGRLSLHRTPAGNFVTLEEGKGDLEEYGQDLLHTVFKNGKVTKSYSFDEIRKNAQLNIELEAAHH

IC50 [nM]	Compound
48.4	CC(C)N1CCN(S(=O)(=O)c2ccc(CNC(=O)c3ccc4nccn4c3)cc2)CC1
150	O=C(NCc1ccc(S(=O)(=O)N2CC3COCC3C2)cc1)c1cnc2[nH]ncc2c1 (mixture of isomers)
43.4	CCN1CCC([S+]([O-])c2ccc(CNC(=O)c3ccc4nccn4c3)cc2)CC1 (stereo not drawn)
